# Source: patent US4357344A, “Polybutylbenzylphenols and benzyl-3,4-methylenedioxybenzenes in insect population control” (The United States of America as represented by the …, priority 1979, dated 1982)
# Tests used:
# flies (family Muscidae) [1] = assay: Anti-procreant comparison tests (sexual sterility or oviposition inhibition); assay type: in vivo; details: for inducing sexual sterility or inhibiting oviposition: comparison tests, Examples 6-9; for activity in the method of the invention (ineffective compounds): general statement of the description
# Procedure: (§1) The compound to be tested was administered in a standard fly food containing 6 parts of sugar, 6 parts of powdered non-fat dry milk, and 1 part of powdered egg yolk. Treated food was prepared by mixing an appropriate amount of a solution or suspension of CBCP in acetone with a batch of the food. The acetone was evaporated (4-6 hours) and the dry material was repulverized.
# Oviposition inhibition tests: Samples of treated food with a container of water were placed in cages containing 100 newly-emerged adult flies (family Muscidae). After the flies had been exposed to the treated diet for 6-7 days, 1/2 inch of moist standard fly larva-rearing medium (CSMA) in souffle cups was placed in the cages for oviposition. After 4-6 hours, the cup was removed and examined for eggs. If no eggs were laid, the medium was offered again at intervals of 1 or 2 days until it had been offered three times or the flies had oviposited.
# (§2) Chemosterilancy tests: If eggs were laid in the above tests, the cups were filled with water and stirred to break up the egg masses. A random sample of 100 eggs from each cup was collected and placed on a small piece of black cloth which was then laid on top of moist larva-rearing medium in a rearing container. Observations were made to determine percentage of egg hatch and pupal development.
# These flies were maintained on untreated fly food. After 5 days, cups containing the larval-rearing medium was provided as previously described and a 100-egg sample was collected and place on moist larve-rearing medium. About a week after oviposition, examination was made to determine the percentage of hatched eggs and of pupae developed.
# For purpose of comparison the above-described tests were applied to 2-benzyl-4-t-butylphenol and 2-(α-methylbenzyl)-4-t-butylphenol.
# For purposes of comparison the above-described tests were applied to 2,6-di-t-butyl-4-(4-methoxybenzyl) phenol and 2,6-di-t-butyl-4-(α-methyl-4-methoxybenzyl)phenol, both compounds being ineffective in inducing sexual sterility or in inhibiting oviposition.
# For purposes of comparison the following compounds were tested and found to be ineffective in inducing sexual sterility or in inhibiting oviposition: 2-(4-methoxybenzyl)-3,4-methylenedioxyphenol, (α-methylbenzyl)-3,4-methylenedioxy-6-methoxybenzene, (α,α-dimethylbenzyl)-3,4-methylenedioxy-6-methoxybenzene, (α,α-dimethylbenzyl)-3,4-methylenedioxy-6-ethoxybenzene, (α,α-dimethylbenzyl)-3,4-methylenedioxy-6-n-propoxybenzene, (α,α-dimethylbenzyl)-3,4-methylenedioxy-6-n-butoxybenzene, (α,α-dimethylbenzyl)-3,4-methylenedioxy-6-n-pentoxybenzene, (α-vinylbenzyl)-3,4-methylenedioxy-6-methoxybenzene, (α-vinylbenzyl)-3,4-methylenedioxy-6-ethoxybenzene, (α-vinylbenzyl)-3,4-methylenedioxy-6-n-propoxybenzene.
# [2] = system: early fourth-stage larvae of the common malaria mosquito (Anopheles quadrimaculatus); assay: Growth-inhibition tests on mosquito larvae; assay type: in vivo; details: in water; corrected by Abbott's formula
# Procedure: The compound to be tested was added to one liter of water until the final concentration thereof was a growth-inhibiting amount. Fifty early fourth-stage larvae of the common malaria mosquito (Anopheles quadrimaculatus) were placed on this water. Larval food was administered daily. Dead larvae and pupae were removed, counted, and discarded daily. Live pupae were removed, rinsed, and transferred to a cup of distilled water. The cup was placed in an emergence cage, and the emerging adults, if any, were maintained on a sugar-water diet.
# The effectiveness of the compound in inhibiting growth was determined by adding the number of dead larvae and pupae and the number of adults that were dead, unable to complete eclosion, and malformed. This sum was corrected by Abbott's formula (to adjust for the number of larvae or pupae which would die naturally) and designated as the GI (growth inhibition). The results are expressed as GI-90, i.e., the concentration of growth inhibitor in ppm that would prevent and/or retard growth in 90% of the treated larvae.
# [3] = system: Salmonella tester strains TA-100, TA-98, TA-1537; assay: Ames' Salmonella/microsome mutagenicity procedure
# Procedure: The mutagenic activity of D, A, B, M, N, and CC were tested by the standard Ames' Salmonella/microsome procedure, which is reported to show better than 90% correlation with development of mammalian cancers (Ames et al., Mutation Research, Vol. 31, p. 347, 1975; McCann et al., Proc. Nat. Acad. Sci., Vol. 72, p. 5135, 1975). Tester strains TA-100, TA-98, TA-1537 and the plate test method were used, employing concentrations of 10, 100, 1000, and 10,000 […]. The metabolic activation mixture (S-9 mix) used the 9000 times g supernatant of Arochlor-1254-induced rat liver homogenate at a level of 100 μl per ml of S-9 mix.
# screwworm flies = assay: Anti-procreant tests on screw-worm fly; assay type: in vivo; details: 0.10% in food
# Procedure: These tests were conducted on mass-reared screwworm flies which had been obtained as pupae from the screwworm fly plant at Mission, Texas. The flies were held in cages with water and undiluted corn syrup in a colony room maintained at about 27° C. and 60% relative humidity (RH) with a 12-hour photoperiod beginning at 6 a.m. Adults that emerged were lightly anesthetized with CO2 for ease of manipulation the same day.
# The mixtures obtained were fed to the flies in "Dixie" paper cups, 7 cm diameter, and rice hulls were placed on the surface of the food to prevent the flies from getting stuck in the viscous mixture.
# Initially, varying concentrations of a chemosterilant were fed to the flies for the first 5 days of life. Thereafter, the chemosterilant was replaced with pure corn syrup. On the 7th day, 3 replicates of 10 flies were stimulated to oviposit and the flies which oviposited were checked for insemination by an examination of the spermathecae for live sperms. The total number of eggs per fly was estimated and the hatchability of these eggs (fertility) was determined 24 hours later (at 37° C.). Observations were made to determine percentage of egg hatch.
# flies (family Muscidae) [4] = assay: Oviposition inhibition tests (treated fly food; Examples 6-9); assay type: in vivo
# Procedure: The compound to be tested was administered in a standard fly food containing 6 parts of sugar, 6 parts of powdered non-fat dry milk, and 1 part of powdered egg yolk. Treated food was prepared by mixing an appropriate amount of a solution or suspension of CBCP in acetone with a batch of the food. The acetone was evaporated (4-6 hours) and the dry material was repulverized. Oviposition inhibition tests: Samples of treated food with a container of water were placed in cages containing 100 newly-emerged adult flies (family Muscidae). After the flies had been exposed to the treated diet for 6-7 days, 1/2 inch of moist standard fly larva-rearing medium (CSMA) in souffle cups was placed in the cages for oviposition. After 4-6 hours, the cup was removed and examined for eggs. […] The procedure outlined in Example 6 was followed using a Group II compound. The procedure outlined in Example 6 was followed using Group III compounds. The results are summarized below: The procedure outlined in Example 6 was followed substituting a Group IV compound for those of Group I. The table below provides a summary of results.
# flies (family Muscidae) [5] = assay: Chemosterilancy tests (egg hatch and pupal development; Examples 6-9); assay type: in vivo
# Procedure: as §1, §2
# The procedure outlined in Example 6 was followed using a Group II compound.
# The procedure outlined in Example 6 was followed using Group III compounds. The results are summarized below:
# The procedure outlined in Example 6 was followed substituting a Group IV compound for those of Group I. The table below provides a summary of results.
# Solubility in water = assay type: physicochemical
molecule,measurement,setting,value
"2-(4-methoxybenzyl)-3,4-methylenedioxyphenol [reference compound]",inducing sexual sterility or inhibiting oviposition,flies (family Muscidae) [1],ineffective
"CC(c1ccccc1)c1cc(C(C)(C)C)ccc1O (stereo not drawn) [2-(α-methylbenzyl)-4-t-butylphenol, reference compound]",inducing sexual sterility or inhibiting oviposition,flies (family Muscidae) [1],ineffective
same,activity in the method of the invention (ineffective compounds),flies (family Muscidae) [1],ineffective
"CC(C)(C)c1ccc(O)c(Cc2ccccc2)c1 [2-benzyl-4-t-butylphenol, reference compound]",inducing sexual sterility or inhibiting oviposition,flies (family Muscidae) [1],ineffective
same,activity in the method of the invention (ineffective compounds),flies (family Muscidae) [1],ineffective
"CC(C)(C)c1cc(C(C)(C)c2ccccc2)cc(C(C)(C)C)c1O [4-(α,α-dimethylbenzyl)-2,6-di-t-butylphenol, reference compound]",activity in the method of the invention (ineffective compounds),flies (family Muscidae) [1],ineffective
"COc1ccc(Cc2cc3c(cc2O)OCO3)cc1 [6-(4-methoxybenzyl)-3,4-methylenedioxyphenol, reference compound]",activity in the method of the invention (ineffective compounds),flies (family Muscidae) [1],ineffective
"CCCCOc1cc2c(cc1C(C)(C)c1ccccc1)OCO2 [AA, (α, 60 -Dimethylbenzyl)-3,4-methylenedioxy-6-n-butoxybenzene]",inducing sexual sterility or inhibiting oviposition,flies (family Muscidae) [1],ineffective
"COc1ccc(C(C)c2cc(C(C)(C)C)c(O)c(C(C)(C)C)c2)cc1 (stereo not drawn) [Compound G, 2,6-Di-t-butyl-4-(α-methyl-4-methoxybenzyl)phenol]",inducing sexual sterility or inhibiting oviposition,flies (family Muscidae) [1],ineffective
same,activity in the method of the invention (ineffective compounds),flies (family Muscidae) [1],ineffective
"COc1ccc(Cc2cc(C(C)(C)C)c(O)c(C(C)(C)C)c2)cc1 [F, 2,6-Di-t-butyl-4-(4-methoxybenzyl)phenol]",inducing sexual sterility or inhibiting oviposition,flies (family Muscidae) [1],ineffective
same,activity in the method of the invention (ineffective compounds),flies (family Muscidae) [1],ineffective
same,GI-90 (concentration of growth inhibitor that would prevent and/or retard growth in 90% of the treated larvae),[2],0.042 ppm
"CCOc1cc2c(cc1Cc1ccc(OC)cc1)OCO2 [M, (4-Methoxybenzyl)-3,4-methylenedioxy-6-ethoxybenzene]",revertant frequencies,"[3]; 10-10,000 μg/plate in TA-100 and S-9",exceeded the mean control value plus two or three standard deviations
same,mutagenic response relative to known mutagenic agents which revert this strain,[3]; TA-100 and S-9,extremely weak
same,Inhibition of embryogenesis,screwworm flies,99.8%
same,Oviposition,screwworm flies,55.0%
same,"Survival, Female",screwworm flies,88.7%
same,"Survival, Male",screwworm flies,35.0%
same,"Mortality, parent generation",flies (family Muscidae) [4]; 0.01% in food,0%
same,"Mortality, parent generation",flies (family Muscidae) [4]; 0.025% in food,0%
same,"Mortality, parent generation",flies (family Muscidae) [4]; 0.05% in food,0%
same,"Mortality, parent generation",flies (family Muscidae) [4]; 0.1% in food,0%
same,Egg hatch,flies (family Muscidae) [5]; 0.01% in food,19%
same,Pupal development,flies (family Muscidae) [5]; 0.01% in food,19%
same,Egg hatch,flies (family Muscidae) [5]; 0.025% in food,0%
same,Pupal development,flies (family Muscidae) [5]; 0.025% in food,0%
same,Egg hatch,flies (family Muscidae) [5]; 0.05% in food,0%
same,Pupal development,flies (family Muscidae) [5]; 0.05% in food,0%
same,solubility in water,Solubility in water,low solubility in water
"CCCOc1cc2c(cc1Cc1ccc(OC)cc1)OCO2 [N, (4-Methoxybenzyl)-3,4-methylenedioxy-6n-propoxybenzene]",mutagenic activity,"[3]; TA-100, TA-98, TA-1537, without or with metabolic activation",non-mutagenic
same,"Mortality, parent generation",flies (family Muscidae) [4]; 0.05% in food,0%
same,"Mortality, parent generation",flies (family Muscidae) [4]; 0.1% in food,0%
same,"Mortality, parent generation",flies (family Muscidae) [4]; 0.25% in food,75%
same,Egg hatch,flies (family Muscidae) [5]; 0.05% in food,33%
same,Pupal development,flies (family Muscidae) [5]; 0.05% in food,33%
same,Egg hatch,flies (family Muscidae) [5]; 0.1% in food,0%
same,Pupal development,flies (family Muscidae) [5]; 0.1% in food,0%
"COc1ccc(Cc2cc3c(cc2OCCC(C)C)OCO3)cc1 [S, (4-Methoxybenzyl)-3,4-methylenedioxy-6-iso-pentoxybenzene]","Mortality, parent generation",flies (family Muscidae) [4]; 0.05% in food,0%
same,"Mortality, parent generation",flies (family Muscidae) [4]; 0.1% in food,0%
same,"Mortality, parent generation",flies (family Muscidae) [4]; 0.25% in food,0%
same,"Mortality, parent generation",flies (family Muscidae) [4]; 0.5% in food,0%
same,GI-90 (concentration of growth inhibitor that would prevent and/or retard growth in 90% of the treated larvae),[2],0.036 ppm
same,Egg hatch,flies (family Muscidae) [5]; 0.05% in food,55%
same,Pupal development,flies (family Muscidae) [5]; 0.05% in food,55%
same,Egg hatch,flies (family Muscidae) [5]; 0.1% in food,6%
same,Pupal development,flies (family Muscidae) [5]; 0.1% in food,6%
same,Egg hatch,flies (family Muscidae) [5]; 0.25% in food,0%
same,Pupal development,flies (family Muscidae) [5]; 0.25% in food,0%
same,Egg hatch,flies (family Muscidae) [5]; 0.5% in food,0%
same,Pupal development,flies (family Muscidae) [5]; 0.5% in food,0%
"CCCOc1cc2c(cc1C(C)c1ccccc1)OCO2 (stereo not drawn) [U, (α-Methylbenzyl)-3,4-methylenedioxy-6-n-propoxybenzene]","Mortality, parent generation",flies (family Muscidae) [4]; 0.025% in food,0%
same,"Mortality, parent generation",flies (family Muscidae) [4]; 0.05% in food,0%
same,"Mortality, parent generation",flies (family Muscidae) [4]; 0.1% in food,0%
same,"Mortality, parent generation",flies (family Muscidae) [4]; 0.25% in food,0%
same,"Mortality, parent generation",flies (family Muscidae) [4]; 0.5% in food,0%
same,"Mortality, parent generation",flies (family Muscidae) [4]; 1.0% in food,0%
same,GI-90 (concentration of growth inhibitor that would prevent and/or retard growth in 90% of the treated larvae),[2],0.3 ppm
same,Egg hatch,flies (family Muscidae) [5]; 0.025% in food,42%
same,Pupal development,flies (family Muscidae) [5]; 0.025% in food,42%
same,Egg hatch,flies (family Muscidae) [5]; 0.05% in food,0%
same,Pupal development,flies (family Muscidae) [5]; 0.05% in food,0%
same,Egg hatch,flies (family Muscidae) [5]; 0.1% in food,0%
same,Pupal development,flies (family Muscidae) [5]; 0.1% in food,0%
same,Egg hatch,flies (family Muscidae) [5]; 0.25% in food,0%
same,Pupal development,flies (family Muscidae) [5]; 0.25% in food,0%
same,Egg hatch,flies (family Muscidae) [5]; 0.5% in food,0%
same,Pupal development,flies (family Muscidae) [5]; 0.5% in food,0%
same,Egg hatch,flies (family Muscidae) [5]; 1.0% in food,0%
same,Pupal development,flies (family Muscidae) [5]; 1.0% in food,0%
"CCCCOc1cc2c(cc1C(C)c1ccccc1)OCO2 (stereo not drawn) [V, (α-Methylbenzyl)-3,4-methylenedioxy-6-n-butoxybenzene]","Mortality, parent generation",flies (family Muscidae) [4]; 0.5% in food,0%
same,GI-90 (concentration of growth inhibitor that would prevent and/or retard growth in 90% of the treated larvae),[2],0.097 ppm
same,Egg hatch,flies (family Muscidae) [5]; 0.5% in food,34%
same,Pupal development,flies (family Muscidae) [5]; 0.5% in food,34%
"(α,α-Dimethylbenzyl)-3,4-methylenedioxy-6-methoxybenzene",inducing sexual sterility or inhibiting oviposition,flies (family Muscidae) [1],ineffective
"(α-Vinylbenzyl)-3,4-methylenedioxy-6-n-propoxybenzene [GG]",inducing sexual sterility or inhibiting oviposition,flies (family Muscidae) [1],ineffective
